# Assay results taken from patent US20130241815A1, “INK CONTAINING ANTHRAQUINONE BASED DYE, DYE USED IN THE INK, AND DISPLAY” (MITSUBISHI CHEMICAL CORPORATION, priority 2010, published 2013).
# How the values were obtained:
# Format in all cases: physicochemical
# [1] = Preparation of ink and evaluation of solubility in low polar solvents (saturated solution, absorption maximum, εC); conditions: for Absorption maximum wavelength: Decalin solution; for Solubility: Decalin, saturated solution, room temperature
# [2] = as above; conditions: for Solubility: saturated solution, room temperature
# Procedure: Each of Illustrative Compounds 1 to 4 and Comparative Compounds 1, 2 and 4 was dissolved in each of the solvents of n-decane, tetradecane, ISOPAR M, and ISOPAR G, thereby preparing an ink. On that occasion, the solubility of each of the compounds in each of the solvents was measured in the following manner.
# Each of the compounds (dyes) was added to each of the solvents until a dissolution residue was generated, and the contents were ultrasonically treated at a water temperature of 30° C. for 30 minutes. After standing at room temperature for 12 hours, the resultant was subjected to centrifugal filtration with a 0.1 μm filter by using an ultrasmall-sized centrifuge (centrifugal force: 5,200×g). Each of the obtained saturated solutions was diluted with an appropriate concentration, a solubility of each of the dyes was calculated from a relation with a previously measured absorption coefficient, and a product ∈C (cm^−1) of a molar absorption coefficient ∈ (L mole^−1 cm^−1) at the absorption maximum wavelength and a concentration C (mole L^−1) of the saturated solution was determined.
# [3] = Light resistance test (residual rate of dye after 2 h irradiation, 400 W high pressure mercury vapor lamp); conditions: 1 mg dye in 200 mL, 10 to 30° C.
# Procedure: The light resistance of each of the compounds (dyes) was measured in the following manner.
# 1 mg of each of the compounds (dyes) was dissolved in 200 mL of each of the low polar solvents within a container, thereby preparing an ink. This ink was irradiated with light for 2 hours by using a photoreactor UVL-400HA (400 W high pressure mercury vapor lamp), manufactured by Riko Kagaku Sangyo K.K. During that interval, the container was cooled with a coolant, thereby keeping an internal temperature at from 10 to 30° C. A residual rate of the dye was determined by calculation according to the following expression, thereby evaluating the light resistance.
# Residual rate=(Absorbance at the maximum absorption wavelength after irradiation)/(Absorbance at the maximum absorption wavelength before irradiation)
SMILES,Absorption maximum wavelength [1] [nm],Solubility [1] [% by mass],εC ([2]; Decalin solution) [cm⁻¹],Absorption maximum wavelength ([2]; ISOPAR G solution),εC ([2]; ISOPAR G solution),Solubility ([2]; ISOPAR G),Absorption maximum wavelength ([2]; ISOPAR M solution),εC ([2]; ISOPAR M solution),Solubility ([2]; ISOPAR M),Absorption maximum wavelength ([2]; Tetradecane solution),εC ([2]; Tetradecane solution),Solubility ([2]; Tetradecane),Absorption maximum wavelength ([2]; n-Decane solution),εC (molar absorption coefficient at absorption maximum x concentration of saturated solution) ([2]; n-Decane solution),Solubility ([2]; n-Decane),Residual rate after light resistance test ([3]; ISOPAR G) [%],Residual rate after light resistance test ([3]; ISOPAR M) [%],Residual rate after light resistance test ([3]; Tetradecane) [%],Residual rate after light resistance test ([3]; n-Decane) [%]
"C=CCn1c(N=Nc2ccc(N(CCC)CCC)cc2NC(C)=O)nc(C#N)c1C#N [Comparative Compound 4, reference compound]",520,0.01,7,Unmeasurable,Low,Low,Unmeasurable,Low,Low,Unmeasurable,Low,Low,Unmeasurable,Low,Low,,,,
CCCCC(CC)CNc1ccc(NCC(CC)CCCC)c2c1C(=O)c1ccc(C(=O)OCC(C)C)cc1C2=O (stereo not drawn) [Illustrative Compound 3],662,10.0,3100,667 nm,2700 cm⁻¹,10.8 % by mass,668 nm,1400 cm⁻¹,5.1 % by mass,668 nm,1200 cm⁻¹,4.7 % by mass,668 nm,1900 cm⁻¹,7.5 % by mass,88,77,94,78
CCCCC(CC)CNc1ccc(NCC(CC)CCCC)c2c1C(=O)c1ccc(C(=O)OCC)cc1C2=O (stereo not drawn) [Illustrative Compound 2],,,,,,,,,,,,,668 nm,1000 cm⁻¹,4.7 % by mass,,,,
CCCCC(CC)CNc1ccc(NCC(CC)CCCC)c2c1C(=O)c1ccccc1C2=O (stereo not drawn) [Illustrative Compound 1],645,9.98,3400,649 nm,1900 cm⁻¹,7.3 % by mass,650 nm,1200 cm⁻¹,4.2 % by mass,651 nm,1600 cm⁻¹,5.7 % by mass,650 nm,2000 cm⁻¹,6.6 % by mass,,,,
CCCCC(CC)CNc1ccc(NCC(CC)CCCC)c2c1C(=O)c1ccc(C(=O)OCCC)cc1C2=O (stereo not drawn) [Illustrative Compound 4],,,,666 nm,1400 cm⁻¹,5.5 % by mass,667 nm,1200 cm⁻¹,4.5 % by mass,668 nm,1300 cm⁻¹,4.9 % by mass,668 nm,2400 cm⁻¹,9.5 % by mass,95,99,93,97
"CNc1ccc(Nc2ccc(C)cc2)c2c1C(=O)c1ccccc1C2=O [Comparative Compound 1, C.I. Solvent Blue 11, reference compound]",636,0.07,26,594 nm,7 cm⁻¹,0.02 % by mass,594 nm,7 cm⁻¹,0.02 % by mass,595 nm,12 cm⁻¹,0.04 % by mass,Unmeasurable,Low,Low,,,,
"CC(C)CNc1ccc(Nc2ccccc2)c2c1C(=O)c1ccccc1C2=O [Comparative Compound 2, reference compound]",,,,,,,,,,,,,614 nm,200 cm⁻¹,0.7 % by mass,,,,
"CCCCN(CCCC)c1ccc(N=Nc2nc(C#N)c(C#N)n2CC#N)c(NC(C)=O)c1 [Comparative Compound 3, reference compound]",,,,,,,,,,,,,,,,,,,45
